Assay results from ChEMBL document CHEMBL1275440, “In vitro activity of telavancin against resistant gram-positive bacteria” (2008).
Activity calls are given as the source filed them.

Columns and labels:
Enterococcus faecium [1] = experiment: Antibacterial activity against vancomycin resistant Enterococcus faecium VanB clinical isolate by broth microdilution method; type: functional
Staphylococcus capitis [2] = experiment: Antibacterial activity against methicillin resistant coagulase-negative Staphylococcus capitis clinical isolate assessed as susceptibility level by broth microdilution method; type: functional
Staphylococcus aureus [3] = experiment: Antibacterial activity against methicillin resistant Staphylococcus aureus clinical isolate assessed as susceptibility level by broth microdilution method; type: functional
Streptococcus pyogenes [4] = experiment: Antibacterial activity against Streptococcus pyogenes group A clinical isolate assessed as susceptibility level by broth microdilution method; type: functional
Streptococcus pneumoniae [5] = experiment: Antibacterial activity against penicillin intermediate Streptococcus pneumoniae clinical isolate assessed as susceptibility level by broth microdilution method; type: functional
Enterococcus faecium [6] = experiment: Antibacterial activity against vancomycin resistant Enterococcus faecium VanA clinical isolate assessed as susceptibility level by broth microdilution method; type: functional
Streptococcus viridans [7] = experiment: Antibacterial activity against Streptococcus viridans clinical isolate assessed as susceptibility level by broth microdilution method; type: functional
Enterococcus faecium [8] = experiment: Antibacterial activity against vancomycin resistant Enterococcus faecium VanA clinical isolate by broth microdilution method; type: functional
[9] = tested on: Staphylococcus auricularis; experiment: Antibacterial activity against methicillin resistant coagulase-negative Staphylococcus auricularis clinical isolate by broth microdilution method; type: functional
Streptococcus agalactiae [10] = experiment: Antibacterial activity against Streptococcus agalactiae group B clinical isolate by broth microdilution method; type: functional
Staphylococcus capitis [11] = experiment: Antibacterial activity against methicillin resistant coagulase-negative Staphylococcus capitis clinical isolate by broth microdilution method; type: functional
[12] = tested on: Staphylococcus saprophyticus; experiment: Antibacterial activity against methicillin resistant coagulase-negative Staphylococcus saprophyticus clinical isolate assessed as susceptibility level by broth microdilution method; type: functional
Streptococcus agalactiae [13] = experiment: Antibacterial activity against Streptococcus agalactiae group B clinical isolate assessed as susceptibility level by broth microdilution method; type: functional
[14] = Antibacterial activity against methicillin resistant coagulase-negative Staphylococcus hominis subsp. novobiosepticus clinical isolate assessed as susceptibility level by broth microdilution method; type: functional
Streptococcus pyogenes [15] = experiment: Antibacterial activity against Streptococcus pyogenes MED 2040 by broth microdilution method; type: functional
[16] = tested on: Staphylococcus saprophyticus; experiment: Antibacterial activity against methicillin resistant coagulase-negative Staphylococcus saprophyticus clinical isolate by broth microdilution method; type: functional
[17] = tested on: Staphylococcus epidermidis; experiment: Antibacterial activity against methicillin resistant Staphylococcus epidermidis clinical isolate by broth microdilution method; type: functional
[18] = tested on: Staphylococcus epidermidis; experiment: Antibacterial activity against methicillin resistant Staphylococcus epidermidis clinical isolate assessed as susceptibility level by broth microdilution method; type: functional
Enterococcus faecalis [19] = experiment: Antibacterial activity against vancomycin resistant Enterococcus faecalis VanB clinical isolate by broth microdilution method; type: functional
Streptococcus pneumoniae [20] = experiment: Antibacterial activity against multidrug-resistant Streptococcus pneumoniae clinical isolate by broth microdilution method; type: functional
[21] = tested on: Streptococcus intermedius; experiment: Antibacterial activity against Streptococcus intermedius clinical isolate by broth microdilution method; type: functional
Streptococcus agalactiae [22] = experiment: Antibacterial activity against Streptococcus agalactiae MED 2038 by broth microdilution method; type: functional
Streptococcus oralis [23] = experiment: Antibacterial activity against Streptococcus oralis clinical isolate by broth microdilution method; type: functional
Streptococcus mitis [24] = experiment: Antibacterial activity against Streptococcus mitis clinical isolate assessed as susceptibility level by broth microdilution method; type: functional
Staphylococcus aureus [25] = experiment: Antibacterial activity against methicillin resistant Staphylococcus aureus clinical isolate by broth microdilution method; type: functional
Enterococcus faecalis [26] = tested on: Enterococcus faecalis
Streptococcus viridans [27] = experiment: Antibacterial activity against Streptococcus viridans clinical isolate by broth microdilution method; type: functional
[28] = tested on: Staphylococcus haemolyticus; experiment: Antibacterial activity against methicillin resistant coagulase-negative Staphylococcus haemolyticus clinical isolate assessed as susceptibility level by broth microdilution method; type: functional
Streptococcus oralis [29] = experiment: Antibacterial activity against Streptococcus oralis clinical isolate assessed as susceptibility level by broth microdilution method; type: functional
[30] = tested on: Streptococcus constellatus; experiment: Antibacterial activity against Streptococcus constellatus clinical isolate assessed as susceptibility level by broth microdilution method; type: functional
[31] = tested on: Staphylococcus haemolyticus; experiment: Antibacterial activity against methicillin resistant coagulase-negative Staphylococcus haemolyticus clinical isolate by broth microdilution method; type: functional
Enterococcus faecium [32] = experiment: Antibacterial activity against vancomycin resistant Enterococcus faecium VanB clinical isolate assessed as susceptibility level by broth microdilution method; type: functional
Streptococcus pneumoniae [33] = experiment: Antibacterial activity against penicillin intermediate Streptococcus pneumoniae clinical isolate by broth microdilution method; type: functional
Streptococcus pneumoniae [34] = experiment: Antibacterial activity against penicillin resistant Streptococcus pneumoniae clinical isolate by broth microdilution method; type: functional
[35] = tested on: Staphylococcus epidermidis; experiment: Antibacterial activity against methicillin resistant Staphylococcus epidermidis ATCC 35984 by broth microdilution method; type: functional
Enterococcus faecalis [36] = experiment: Antibacterial activity against vancomycin resistant Enterococcus faecalis VanB clinical isolate assessed as susceptibility level by broth microdilution method; type: functional
[37] = tested on: Streptococcus intermedius; experiment: Antibacterial activity against Streptococcus intermedius clinical isolate assessed as susceptibility level by broth microdilution method; type: functional
[38] = Antibacterial activity against methicillin resistant coagulase-negative Staphylococcus hominis subsp. novobiosepticus clinical isolate by broth microdilution method; type: functional
Streptococcus mitis [39] = experiment: Antibacterial activity against Streptococcus mitis clinical isolate by broth microdilution method; type: functional
[40] = tested on: Streptococcus constellatus; experiment: Antibacterial activity against Streptococcus constellatus clinical isolate by broth microdilution method; type: functional
[41] = tested on: Staphylococcus auricularis; experiment: Antibacterial activity against methicillin resistant coagulase-negative Staphylococcus auricularis clinical isolate assessed as susceptibility level by broth microdilution method; type: functional

CC(=O)NC[C@H]1CN(c2ccc(N3CCOCC3)c(F)c2)C(=O)O1 [LINEZOLID]
99%: Activity (Staphylococcus aureus [3]) | Activity (Enterococcus faecium [6]) | Activity (Staphylococcus aureus [25])
4 µg/mL: MIC90 (Staphylococcus aureus [25]; Staphylococcus aureus)
96%: Activity (Enterococcus faecium [32])
1 µg/mL: MIC50 [9] | MIC50 (Streptococcus agalactiae [10]) | MIC90 (Streptococcus agalactiae [10]) | MIC50 (Staphylococcus capitis [11]) | MIC (Streptococcus pyogenes [15]) | MIC50 [16] | MIC50 [17] | MIC90 [17] | MIC50 (Streptococcus pneumoniae [20]) | MIC90 (Streptococcus pneumoniae [20]) | MIC (Streptococcus agalactiae [22]) | MIC50 [31] | MIC50 (Streptococcus pneumoniae [33]) | MIC90 (Streptococcus pneumoniae [33]) | MIC50 (Streptococcus pneumoniae [34]) | MIC90 (Streptococcus pneumoniae [34]) | MIC50 [38]
inactive: MIC50 [21] | MIC90 [21] | MIC50 (Streptococcus oralis [23]) | MIC90 (Streptococcus oralis [23]) | MIC50 (Enterococcus faecalis [26]) | MIC90 (Enterococcus faecalis [26]) | MIC50 (Streptococcus viridans [27]) | MIC90 (Streptococcus viridans [27]) | MIC50 (Streptococcus mitis [39]) | MIC90 (Streptococcus mitis [39]) | MIC50 [40] | MIC90 [40]
2 µg/mL: MIC50 (Enterococcus faecium [1]) | MIC90 (Enterococcus faecium [1]) | MIC50 (Enterococcus faecium [8]) | MIC90 (Enterococcus faecium [8]) | MIC90 [9] | MIC90 (Staphylococcus capitis [11]) | MIC90 [16] | MIC50 (Staphylococcus aureus [25]; Staphylococcus aureus) | MIC90 [31] | MIC [35] | MIC90 [38]
100%: Activity (Staphylococcus capitis [2]) | Activity (Streptococcus pneumoniae [5]) | Activity (Streptococcus viridans [7]) | Activity [12] | Activity (Streptococcus agalactiae [13]) | Activity [14] | Activity [18] | Activity (Streptococcus mitis [24]) | Activity [28] | Activity (Streptococcus oralis [29]) | Activity [30] | Activity (Enterococcus faecalis [36]) | Activity [37] | Activity [41]
98%: Activity (Streptococcus pyogenes [4])
0.5 µg/mL: MIC (Enterococcus faecalis [19]) | MIC [21] | MIC (Streptococcus oralis [23]) | MIC (Streptococcus viridans [27]) | MIC (Streptococcus mitis [39]) | MIC [40]
